Measurements: patent US7825231B2 (priority 2005, dated 2010)
“Also recorded” adds a separate entry of the source.

Legend:
Type in all cases: in vivo, rat
[1] = test system: rats with SNL; experiment: Spinal nerve ligation model of neuropathic pain: mechanical allodynia (von Frey hairs); details: intrathecal
Source text: (§1) The spinal nerve ligation model was utilized to produce mechanical allodynia and thermal hyperalgesia, hallmarks of neuropathic pain(41).
(§2) Male Sprague-Dawley rats weighing 225 to 250 g underwent selective L5 SNL with the approval of the University Committee on Use and Care of Animals(53). Under isoflurane anesthesia, an incision was made in the atlanto-occipital membrane, a polyethylene (PE-10) catheter, filled with 0.9% saline, was advanced 8.5 cm caudally to position its tip at the level of the lumbar enlargement. The rostral tip of the catheter was passed subcutaneously, externalized on top of the skull, and sealed with a stainless-steel plug. One week after implantation of the intrathecal catheter, L5 spinal nerve ligation (SNL) was performed. […]
(§3) Mechanical allodynia induced by SNL was determined by assessing the response of paw withdrawal to von Frey hairs of graded tensile strength as described previously with a tactile stimulus producing a 50% likelihood of withdrawal determined using the up-down method(53, 71, 72). Thermal hyperalgesia was determined using a Hargreaves apparatus recording the time to withdrawal from a radiant thermal stimulus positioned directly under the hind paw(73). […]

[2] = test system: rats with SNL; experiment: Spinal nerve ligation model of neuropathic pain: thermal hyperalgesia (Hargreaves apparatus); details: intrathecal
Source text: as §1, §2, §3

[3] = test system: male Sprague-Dawley rats; experiment: CFA model of inflammatory pain: mechanical allodynia (von Frey hairs); details: three days after CFA injury
Protocol: (§4) Mechanical allodynia induced by SNL was determined by assessing the response of paw withdrawal to von Frey hairs of graded tensile strength as described previously with a tactile stimulus producing a 50% likelihood of withdrawal determined using the up-down method(53, 71, 72). Thermal hyperalgesia was determined using a Hargreaves apparatus recording the time to withdrawal from a radiant thermal stimulus positioned directly under the hind paw(73). Parametric statistics, using the general linear model for repeated measures were used to identify significant effects of treatment condition on the behavioral measure of neuropathic pain. The results were examined for a main effect of treatment group. All statistical analyses were performed using the software package, SPSS 13.0 for Windows (SPSS Inc., Chicago, Ill.).
(§5) Inflammatory injury was induced by injection of 150 μL CFA in the left-hind paw of male Sprague-Dawley rats.
Mechanical allodynia was tested using von Frey hair stimulation as described in Example 2. […] The antiallodynic effect of vEM2 was reversed by intrathecal (FIG. 5B) or intraperitoneal (FIG. 5C) administration of Nal-M.

[4] = test system: male Sprague-Dawley rats; experiment: CFA model of inflammatory pain: thermal hyperalgesia (Hargreaves apparatus); details: three days after CFA injury
Protocol: as §4, §5
Thermal hyperalgesia was tested using a Hargreaves apparatus as in Example 2.

[5] = test system: male Sprague-Dawley rats; experiment: CFA model of inflammatory pain: weight bearing (incapacitance analgesia meter); details: three days after CFA injury
Protocol: as §5
Weight-bearing ability in the CFA model was measured using an incapacitance analgesia meter. […] The effect of vEM2 was reversed by intrathecal (FIG. 7B) or intraperitoneal (FIG. 7C) administration of Nal-M.

[6] = 10 days after vEM2 in rats with SNL

CTOP
effect on the antiallodynic effect produced by vEM2 [1, 6]: reversed
effect on mechanical threshold, given alone ([1]; normal animals, data not shown): did not affect
effect on the antihyperalgesic effect produced by vEM2 [2, 6]: reversed
effect on thermal latency, given alone ([2]; normal animals, data not shown): did not affect

C=CC[N+]1(C)CC[C@]23c4c5ccc(O)c4O[C@H]2C(=O)CC[C@@]3(O)[C@H]1C5 (stereo partly shown) [Nal-M, naloxone-methiodide]
effect on the antiallodynic effect of vEM2 (mechanical threshold) ([3]; intraperitoneal): reversed
effect on the antiallodynic effect of vEM2 (mechanical threshold) ([3]; intrathecal): reversed
effect on the anti-hyperalgesic effect of vEM2 (thermal latency) ([4]; intraperitoneal): reversed
effect on the anti-hyperalgesic effect of vEM2 (thermal latency) ([4]; intrathecal): not significantly affected; also recorded: did not significantly counteract
effect on the effect of vEM2 (weight bearing differential) ([5]; intraperitoneal): reversed
effect on the effect of vEM2 (weight bearing differential) ([5]; intrathecal): reversed
